According to article PMC8351946, “Mle046 Is a Marine Mesophilic MHETase-Like Enzyme” (Frontiers in Microbiology, 2021):

Tested on: T1, Mle046
T1 construct: signal peptide (first 27 residues) removed; His-tagged (pColdII), tag kept; codon-optimised gene, E. coli Shuffle T7; theoretical 62 kD
Assay: HPLC ([…] nm), MHET degradation rate, non-linear Michaelis-Menten fit
Type: biochemical, metagenome: marine microbial consortium
Conditions: 40 mM sodium phosphate pH 7.5, 30°C; rate declines at 2,700 μM MHET (fit up to 2,230 μM)

Molecule `O=C(O)c1ccc(C(=O)OCCO)cc1` [MHET] has a Km of 2640 µM.
